# Experimental data reported in patent US20220401390A1, “TREATMENTS OF DIABETIC MACULAR EDEMA AND IMPAIRED VISUAL ACUITY” (KALVISTA PHARMACEUTICALS LIMITED, priority 2019, published 2022).
# Test system: subjects with center involved diabetic macular edema
# Test: Study 1: safety and tolerability of single ascending intravitreal doses
# Assay type: in vivo, human
# Text: Study—an Open Label, Single Ascending Dose Study to Investigate the Safety and Tolerability of the Compound of Formula A Administered by Intravitreal Injection in Subjects with Center Involved Diabetic Macular Edema and Reduced Vision
# The primary objective of the trial was to evaluate the local and systemic safety and tolerability of single ascending doses administered via intravitreal injection of the compound of Formula A in adult male and female subjects with central involved diabetic macular edema.
# Following the signing of informed consent, subjects attended the clinic where screening assessments were recorded (Clinic Visit 1). When deemed eligible, subjects attended the clinic where baseline measurements were recorded (recorded as Day 0, Clinic Visit 2). Following confirmation of eligibility and the taking of baseline ophthalmic measurements, a single intravitreal injection of the compound of Formula A, was administered to the study eye as per Diabetic Retinopathy Clinical Research Network (DRCR.net) protocol.
# Each subject returned on Day 1, 7, 14, 28 and 56 for safety and ophthalmic assessment. Pharmacokinetic assessment was also taken. In addition, the subject was contacted by the Study Site on Day 3 (+1-1 day) by telephone to inquire about the subject's visual wellbeing and to ask about any adverse events.
# Once the highest safe and tolerated (or practical) dose had been established, the study proceeded to Part 2 in which 5 additional subjects were treated with the established highest safe and tolerated (or practical) dose according to the same protocol with the same procedures performed as described for subjects enrolled into Part 1.
# Single 100 μL intravitreal injection of: • 1 μg-10 μg/mL of the compound of Formula A • 3 μg-30 μg/mL of the compound of Formula A • […] of the compound of Formula A
# • Best Corrected Visual Acuity as measured by ETDRS EVA • Intraocular pressure • Color vision • Multifocal Electroretinogram (mfERG) • Humphrey Visual Field 24-2 (HVF 24-2) • Treatment-Emergent Adverse Events (TEAEs) • Changes on ophthalmic examination • Clinical laboratory test results • Vital signs • ECG findings
# [1] = of the 14 subjects, single intravitreal injection, all dose groups
smiles,measurement,setting,value
"CCOc1ccc(C[C@@H](NC(=O)c2ccccc2)C(=O)N[C@@H](Cc2ccccc2)C(=O)NCc2ccc(CN)cc2)cc1 [compound of Formula A, N—[(R)-1-[(S)-1-(4-Aminomethyl-benzylcarbamoyl)-2-phenyl-ethylcarbamoyl]-2-(4-ethoxy-phenyl)-ethyl]-benzamide]",Adverse events leading to withdrawal from the study,"14 subjects, all dose groups",nor did any event lead to withdrawal from the study
same,Deaths or other serious adverse events,"14 subjects, all dose groups",no deaths or other serious adverse events
same,Severe events,"14 subjects, all dose groups",1 patient
same,Study drug-related events,"14 subjects, all dose groups",2 patients
same,Subjects who reported at least one adverse event (%),[1],71%
same,Subjects who reported at least one adverse event (number),[1],10 subjects
same,Adverse systemic effect,"review of adverse events, laboratory results, ECG and physical examinations",no evidence of any adverse effect associated with systemic exposure
same,Tolerability of intravitreal injection,"single intravitreal injection, 1, 3 or 10 μg",well tolerated
